Results on 27 molecules are retold here after patent publication US20210355104A1, “ADENOSINE RECEPTOR BINDING COMPOUNDS” (Nikang Therapeuticsm Inc., priority 2018, published 2021).

The target of test [1] is T1, Adenosine A2A receptor (Homo sapiens, UniProt P29274). The test can be described thus: Adenosine A2A receptor competitive binding assay (Tag-lite HTRF). Conditions: Tag-lite adenosine A2A receptor ligand binding, 2 h room temperature; values separated by / are repeat determinations. A digest of the protocol: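 Tag-lite HTRF competition: donor-labelled cells expressing human A2A were mixed with serially diluted compounds (DMSO 0.6% in dilutions) and red fluorescent A2A antagonist ligand (60 nM stock). Incubated 2 h at room temperature before HTRF readout.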

In test [2] the target is T1, Adenosine A2A receptor. The test can be described thus: cAMP assay in 293A cells stably expressing the adenosine A2A receptor (CGS21680 stimulation, HTRF). In kind it is cell-based. More on the design: expressed in transfected cells; host or cells: 293A cells (Invitrogen, Cat# R705-07) infected with A2A-expressing lentivirus (custom packaged by Biosettia), puromycin selected. Conditions: 293A-A2AR cells, 0.1% BSA, values separated by / are repeat determinations. Background: Changes in cAMP serve as a functional read-out for many G protein-coupled receptors.

[3] abbreviates: 8 nM CGS, read-out: cAMP (nM) 0.1% BSA, 8 nM CGS.
Setting [4] is: 1 uM CGS, read-out: cAMP (nM) 0.1% BSA, 1 uM CGS.

Where “and” joins values, the source holds several entries; their conditions need not be identical. Equal entries are not always repeated.

T1 sequence (P29274 whole entry): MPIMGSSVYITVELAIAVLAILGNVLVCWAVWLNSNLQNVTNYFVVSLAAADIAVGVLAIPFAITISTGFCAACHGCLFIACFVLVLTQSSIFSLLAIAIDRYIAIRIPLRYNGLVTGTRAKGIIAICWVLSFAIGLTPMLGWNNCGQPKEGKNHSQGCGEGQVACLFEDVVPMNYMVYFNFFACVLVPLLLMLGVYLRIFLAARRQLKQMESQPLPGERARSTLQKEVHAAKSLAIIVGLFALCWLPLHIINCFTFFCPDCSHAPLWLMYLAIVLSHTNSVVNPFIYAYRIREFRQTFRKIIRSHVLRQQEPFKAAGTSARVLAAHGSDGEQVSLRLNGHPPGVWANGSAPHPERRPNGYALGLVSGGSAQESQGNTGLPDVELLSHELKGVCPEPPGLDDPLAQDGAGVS

Turning to `Cc1cc(-c2c(OCCN(C)c3ccccc3)nc(N)nc2-c2ccc(F)cc2)cc(C(F)F)n1` [Example 87, 5-(2-(difluoromethyl)-6-methylpyridin-4-yl)-4-(4-fluorophenyl)-6-(2-(methyl(phenyl)amino)ethoxy)pyrimidin-2-amine], the IC50 turned out to be 18 nM on Adenosine A2A receptor [1] and 2.2 nM on Adenosine A2A receptor [2] (setting [3]).

In the case of `Cc1cc(-c2c(OCC(=O)N(CCO)CCO)nc(N)nc2-c2ccc(F)cc2)cc(C(F)F)n1` [Example 88], the IC50 came to 22 nM at Adenosine A2A receptor [1], 8.3 nM on Adenosine A2A receptor [2] (setting [3]) and 4260 nM at Adenosine A2A receptor [2] (setting [4]).

With `CCN(CCO)C(=O)COc1nc(N)nc(-c2ccc(F)cc2)c1-c1cc(C)nc(C(F)F)c1` [Example 89, 2-((2-amino-5-(2-(difluoromethyl)-6-methylpyridin-4-yl)-6-(4-fluorophenyl)pyrimidin-4-yl)oxy)-N-ethyl-N-(2-hydroxyethyl)acetamide], the figures for the IC50 at Adenosine A2A receptor [1] and at Adenosine A2A receptor [2] (setting [3]) were 6.1 nM and 2.2 nM, respectively.

For `CCN(C(=O)COc1nc(N)nc(-c2ccc(F)cc2)c1-c1cc(C)nc(C(F)F)c1)c1ccccc1` [Example 90], the IC50 on Adenosine A2A receptor [1] was 23 nM; on Adenosine A2A receptor [2] (setting [3]) it was 6.8 nM.

In the case of `Cc1cc(-c2c(OCC(=O)Nc3ccccc3)nc(N)nc2-c2ccc(F)cc2)cc(C(F)F)n1` [Example 92, 2-((2-amino-5-(2-(difluoromethyl)-6-methylpyridin-4-yl)-6-(4-fluorophenyl)pyrimidin-4-yl)oxy)-N-phenylacetamide], the IC50 came to 48 nM on Adenosine A2A receptor [1] and 6.4 nM at Adenosine A2A receptor [2] (setting [3]).

In the case of `Cc1cc(-c2c(OCCNc3ccccn3)nc(N)nc2-c2ccc(F)cc2)cc(C(F)F)n1` [Example 94, 5-(2-(difluoromethyl)-6-methylpyridin-4-yl)-4-(4-fluorophenyl)-6-(2-(pyridin-2-ylamino)ethoxy)pyrimidin-2-amine], the IC50 at Adenosine A2A receptor [1] is 2.4 nM; at Adenosine A2A receptor [2] (setting [3]), 0.39 nM and 2.9 nM.

On to `Cc1cc(-c2c(OCc3nc(C)n[nH]3)nc(N)nc2-c2ccc(F)cc2)cc(C(F)F)n1` [Example 97, 5-(2-(difluoromethyl)-6-methylpyridin-4-yl)-4-(4-fluorophenyl)-6-((3-methyl-1H-1,2,4-triazol-5-yl)methoxy)pyrimidin-2-amine], for which the IC50 is 14 nM at Adenosine A2A receptor [1], 4.5 nM at Adenosine A2A receptor [2] (setting [3]) and 3310 nM on Adenosine A2A receptor [2] (setting [4]).

Take `Cc1cc(-c2c(OCC(=O)N(C)c3ccccc3)nc(N)nc2-c2ccc(F)cc2)cc(C(F)F)n1` [Example 98, 2-((2-amino-5-(2-(difluoromethyl)-6-methylpyridin-4-yl)-6-(4-fluorophenyl)pyrimidin-4-yl)oxy)-N-methyl-N-phenylacetamide]: the values for the IC50 on Adenosine A2A receptor [1] and at Adenosine A2A receptor [2] (setting [3]) were 5.9 nM and 1.2 nM, respectively.

`Cc1cc(-c2c(OCC3(F)CCOCC3)nc(N)nc2-c2ccc(F)cc2)cc(C(F)F)n1` [Example 102, 5-(2-(difluoromethyl)-6-methylpyridin-4-yl)-4-(4-fluorophenyl)-6-((4-fluorotetrahydro-2H-pyran-4-yl)methoxy)pyrimidin-2-amine]: the IC50 on Adenosine A2A receptor [1] came to 0.83 nM; on Adenosine A2A receptor [2] (setting [4]), 10 nM.

With `COC(=O)NCc1nc(N)nc(-c2ccc(F)cc2)c1-c1cc(C)nc(C(F)F)c1` [Example 103, methyl((2-amino-5-(2-(difluoromethyl)-6-methylpyridin-4-yl)-6-(4-fluorophenyl)pyrimidin-4-yl)methyl)carbamate], the IC50 on Adenosine A2A receptor [1] is 47 nM; at Adenosine A2A receptor [2] (setting [3]), 11 nM.

`CCn1ccnc1COc1nc(N)nc(-c2ccc(F)cc2)c1-c1cc(C)nc(C(F)F)c1` [Example 105, 5-(2-(difluoromethyl)-6-methylpyridin-4-yl)-4-((1-ethyl-1H-imidazol-2-yl)methoxy)-6-(4-fluorophenyl)pyrimidin-2-amine]: the IC50 at Adenosine A2A receptor [1] was 0.17 nM and 1 nM; at Adenosine A2A receptor [2] (setting [3]), 0.44 nM and 0.38 nM; on Adenosine A2A receptor [2] (setting [4]), 10 nM.

For the molecule `COC(=O)N1CCC(COc2nc(N)nc(-c3ccc(F)cc3)c2-c2cc(C)nc(C(F)F)c2)CC1` [Example 106, methyl 4-(((2-amino-5-(2-(difluoromethyl)-6-methylpyridin-4-yl)-6-(4-fluorophenyl)pyrimidin-4-yl)oxy)methyl)piperidine-1-carboxylate], the IC50 at Adenosine A2A receptor [1] was determined as 38 nM; on Adenosine A2A receptor [2] (setting [3]), 43 nM.

As to `Cc1cc(-c2c(OCCNS(N)(=O)=O)nc(N)nc2-c2ccccc2)cc(C(F)(F)F)n1` [Example 112], the results for the IC50 at Adenosine A2A receptor [1] and on Adenosine A2A receptor [2] (setting [3]) were 6.7 nM and 3.1 nM, respectively.

With `CNC(=O)NCCOc1nc(N)nc(-c2ccc(F)cc2)c1-c1cc(C)nc(C(F)F)c1` [Example 113, 1-(2-((2-amino-5-(2-(difluoromethyl)-6-methylpyridin-4-yl)-6-(4-fluorophenyl)pyrimidin-4-yl)oxy)ethyl)-3-methylurea], the IC50 is 8.9 nM at Adenosine A2A receptor [1]; 16 nM and 7.5 nM at Adenosine A2A receptor [2] (setting [3]).

Regarding `Cc1cc(-c2c(OCC3COCCO3)nc(N)nc2-c2ccc(F)cc2)cc(C(F)F)n1` (stereo not drawn) [Example 114], the IC50 on Adenosine A2A receptor [1] was 7.7 nM; at Adenosine A2A receptor [2] (setting [3]) it was 6.2 nM and 4.2 nM.

Consider `CNS(=O)(=O)NCCOc1nc(N)nc(-c2ccc(F)cc2)c1-c1cc(C)nc(C(F)F)c1` [Example 115], for which the values for the IC50 at Adenosine A2A receptor [1], at Adenosine A2A receptor [2] (setting [3]) and on Adenosine A2A receptor [2] (setting [4]) were 19 nM, 9.9 nM and 820 nM, respectively.

As to `COC(=O)NCCOc1nc(N)nc(-c2ccc(F)cc2)c1-c1cc(C)nc(C(F)F)c1` [Example 116, methyl(2-((2-amino-5-(2-(difluoromethyl)-6-methylpyridin-4-yl)-6-(4-fluorophenyl)pyrimidin-4-yl)oxy)ethyl)carbamate], the IC50 is 7.3 nM on Adenosine A2A receptor [1]; 4.7 nM and 3.2 nM on Adenosine A2A receptor [2] (setting [3]).

`CCN(C(=O)COc1nc(N)nc(-c2ccc(F)cc2)c1-c1cc(C)nc(C(F)F)c1)c1ccccn1` [Example 117, 2-((2-amino-5-(2-(difluoromethyl)-6-methylpyridin-4-yl)-6-(4-fluorophenyl)pyrimidin-4-yl)oxy)-N-ethyl-N-(pyridin-2-yl)acetamide]: the IC50 is 39.4 nM on Adenosine A2A receptor [1] and 27 nM at Adenosine A2A receptor [2] (setting [3]).

For the molecule `CCN(C(=O)COc1nc(N)nc(-c2ccc(F)cc2)c1-c1cc(C)nc(C(F)F)c1)C1COC1` [Example 118, 2-((2-amino-5-(2-(difluoromethyl)-6-methylpyridin-4-yl)-6-(4-fluorophenyl)pyrimidin-4-yl)oxy)-N-ethyl-N-(oxetan-3-yl)acetamide], the IC50 on Adenosine A2A receptor [1] came out at 28.7 nM; on Adenosine A2A receptor [2] (setting [3]), 18 nM.

For the molecule `COC(=O)NCCOc1nc(N)nc(-c2ccccc2)c1-c1cc(C)nc(C(F)(F)F)c1` [Example 119, methyl(2-((2-amino-5-(2-methyl-6-(trifluoromethyl)pyridin-4-yl)-6-phenylpyrimidin-4-yl)oxy)ethyl)carbamate], the IC50 is 16.8 nM at Adenosine A2A receptor [1]; 5.8 nM and 5.4 nM on Adenosine A2A receptor [2] (setting [3]).

`CNC(=O)NCCOc1nc(N)nc(-c2ccccc2)c1-c1cc(C)nc(C(F)(F)F)c1` [Example 120, 1-(2-((2-amino-5-(2-methyl-6-(trifluoromethyl)pyridin-4-yl)-6-phenylpyrimidin-4-yl)oxy)ethyl)-3-methylurea]: the IC50 was 8.8 nM on Adenosine A2A receptor [1]; 13 nM and 8.2 nM on Adenosine A2A receptor [2] (setting [3]).

As for `CCNC(=O)N(CC)CCOc1nc(N)nc(-c2ccc(F)cc2)c1-c1cc(C)nc(C(F)F)c1` [Example 123, 1-(2-((2-amino-5-(2-(difluoromethyl)-6-methylpyridin-4-yl)-6-(4-fluorophenyl)pyrimidin-4-yl)oxy)ethyl)-1,3-diethylurea], the IC50 was 1.2 nM on Adenosine A2A receptor [1]; 0.87 nM and 0.67 nM at Adenosine A2A receptor [2] (setting [3]).

As for `CCN(CCOc1nc(N)nc(-c2ccc(F)cc2)c1-c1cc(C)nc(C(F)F)c1)C(=O)NC` [Example 124, 1-(2-((2-amino-5-(2-(difluoromethyl)-6-methylpyridin-4-yl)-6-(4-fluorophenyl)pyrimidin-4-yl)oxy)ethyl)-1-ethyl-3-methylurea], the IC50 at Adenosine A2A receptor [1] is 1.7 nM; at Adenosine A2A receptor [2] (setting [3]), 1.1 nM and 0.5 nM; at Adenosine A2A receptor [2] (setting [4]) it was 535 nM.

Take `Cc1cc(-c2c(OCC3(CO)CCOCC3)nc(N)nc2-c2ccc(F)cc2)cc(C(F)F)n1` [Example 125, (4-(((2-amino-5-(2-(difluoromethyl)-6-methylpyridin-4-yl)-6-(4-fluorophenyl)pyrimidin-4-yl)oxy)methyl)tetrahydro-2H-pyran-4-yl)methanol]: the IC50 was found to be 18.1 nM on Adenosine A2A receptor [1], 8.7 nM on Adenosine A2A receptor [2] (setting [3]) and 1890 nM on Adenosine A2A receptor [2] (setting [4]).

Take `CCc1nn[nH]c1COc1nc(N)nc(-c2ccc(F)cc2)c1-c1cc(C)nc(C(F)F)c1` [Example 137, 5-(2-(difluoromethyl)-6-methylpyridin-4-yl)-4-((4-ethyl-1H-1,2,3-triazol-5-yl)methoxy)-6-(4-fluorophenyl)pyrimidin-2-amine]: the values for the IC50 at Adenosine A2A receptor [1] and on Adenosine A2A receptor [2] (setting [3]) were 92 nM and 40 nM, respectively.

`CNC(=O)OCCOc1nc(N)nc(-c2ccc(F)cc2)c1-c1cc(C)nc(C(F)F)c1` [Example 143, 2-((2-amino-5-(2-(difluoromethyl)-6-methylpyridin-4-yl)-6-(4-fluorophenyl)pyrimidin-4-yl)oxy)ethyl methylcarbamate]: the IC50 turned out to be 11.7 nM on Adenosine A2A receptor [1] and 8.1 nM on Adenosine A2A receptor [2] (setting [3]).

For `CNC(=O)OCCOc1nc(N)nc(-c2ccccc2)c1-c1cc(C)nc(C(F)(F)F)c1` [Example 144, 2-((2-amino-5-(2-methyl-6-(trifluoromethyl)pyridin-4-yl)-6-phenylpyrimidin-4-yl)oxy)ethyl methylcarbamate], the results for the IC50 at Adenosine A2A receptor [1] and on Adenosine A2A receptor [2] (setting [3]) were 4.5 nM and 4.2 nM, respectively.
